Measurements reported in ChEMBL document CHEMBL5352456, “Isocyanides in med chem: A scaffold hopping approach for the identification of novel 4-isocyanophenylamides as potent antibacterial agents against methicillin-resistant Staphylococcusaureus” (Eur J Med Chem, 2023).

Key:
Format in all cases: functional
Conditions in all cases: time 16-20 hrs
Staphylococcus aureus [1] = assay: Antibacterial activity against Staphylococcus aureus ATCC 6538 assessed as reduction in microbial growth measured for 16 to 20 hrs by microdilution assay
[2] = system: Staphylococcus epidermidis; assay: Antibacterial activity against Staphylococcus epidermidis ATCC 35984 assessed as reduction in microbial growth measured for 16 to 20 hrs by microdilution assay
Staphylococcus aureus [3] = assay: Antibacterial activity against Staphylococcus aureus ATCC 29213 assessed as reduction in microbial growth measured for 16 to 20 hrs by microdilution assay
[4] = system: Staphylococcus epidermidis; assay: Antibacterial activity against Staphylococcus epidermidis ATCC 12228 assessed as reduction in microbial growth measured for 16 to 20 hrs by microdilution assay
[5] = system: Staphylococcus epidermidis; assay: Antibacterial activity against Staphylococcus epidermidis ATCC 49134 assessed as reduction in microbial growth measured for 16 to 20 hrs by microdilution assay
Staphylococcus aureus [6] = assay: Antibacterial activity against methicillin-resistant Staphylococcus aureus ATCC 33592 assessed as reduction in microbial growth measured for 16 to 20 hrs by microdilution assay
Staphylococcus aureus [7] = assay: Antibacterial activity against Staphylococcus aureus ATCC 25923 assessed as reduction in microbial growth measured for 16 to 20 hrs by microdilution assay
Staphylococcus aureus [8] = assay: Antibacterial activity against methicillin-resistant Staphylococcus aureus ATCC 43300 assessed as reduction in microbial growth measured for 16 to 20 hrs by microdilution assay
Klebsiella pneumoniae = assay: Antibacterial activity against Klebsiella pneumoniae ATCC 700603 assessed as inhibition of bacterial growth measured for 16 to 20 hrs by microdilution assay
Pseudomonas aeruginosa = assay: Antibacterial activity against Pseudomonas aeruginosa ATCC 10145 assessed as inhibition of bacterial growth measured for 16 to 20 hrs by microdilution assay
Escherichia coli = assay: Antibacterial activity against Escherichia coli ATCC 25922 assessed as inhibition of bacterial growth measured for 16 to 20 hrs by microdilution assay

| Structure (SMILES) | MIC (Staphylococcus aureus [1]) | MIC [2] | MIC (Staphylococcus aureus [3]) | MIC [4] | MIC [5] | MIC (Staphylococcus aureus [6]) | MIC (Staphylococcus aureus [7]) | MIC (Staphylococcus aureus [8]) | MIC (Klebsiella pneumoniae) | MIC (Pseudomonas aeruginosa) | MIC (Escherichia coli) |
| --- | --- | --- | --- | --- | --- | --- | --- | --- | --- | --- | --- |
| CN(C)[C@@H]1C(O)=C(C(N)=O)C(=O)[C@@]2(O)C(O)=C3C(=O)c4c(O)cccc4[C@@](C)(O)[C@H]3C[C@@H]12 [TETRACYCLINE] | 1.13 µM | 4.52 µM | 1.13 µM | > 4.52 µM | 0.27 µM | > 4.52 µM | 1.13 µM | 1.13 µM | – | – | – |
| [C-]#[N+]c1ccc(NC(=O)CCc2ccccc2)cc1 | 8 µM | 1 µM | 8 µM | 2 µM | 2 µM | > 8 µM | 4 µM | 8 µM | ≥ 64 µM | ≥ 64 µM | ≥ 64 µM |
| [C-]#[N+]c1ccc(C(=O)Nc2ccccc2)cc1 | > 8 µM | – | > 8 µM | – | – | – | > 8 µM | – | ≥ 64 µM | ≥ 64 µM | ≥ 64 µM |
| [C-]#[N+]c1ccc(NC(=O)Cc2ccc([N+](=O)[O-])cc2)cc1 | 8 µM | 0.5 µM | 8 µM | 1 µM | 0.5 µM | 8 µM | 2 µM | 4 µM | ≥ 64 µM | ≥ 64 µM | ≥ 64 µM |
| [C-]#[N+]c1ccc(NC(=O)CC(C)C)cc1 | > 8 µM | – | > 8 µM | – | – | – | > 8 µM | – | ≥ 64 µM | ≥ 64 µM | ≥ 64 µM |
| [C-]#[N+]c1ccc(NC(=O)Cc2ccccc2OC)cc1 | > 8 µM | – | > 8 µM | – | – | – | > 8 µM | – | ≥ 64 µM | ≥ 64 µM | ≥ 64 µM |
| [C-]#[N+]c1ccc(NC(=O)CCc2cccnc2)cc1 | > 8 µM | – | > 8 µM | – | – | – | > 8 µM | – | ≥ 64 µM | ≥ 64 µM | ≥ 64 µM |
| [C-]#[N+]c1ccc(NC(=O)Cc2c(Cl)cccc2Cl)cc1 | > 8 µM | – | > 8 µM | – | – | – | > 8 µM | – | ≥ 64 µM | ≥ 64 µM | ≥ 64 µM |
| [C-]#[N+]c1ccc(NC(=O)c2ccccc2)cc1 | > 8 µM | – | > 8 µM | – | – | – | > 8 µM | – | ≥ 64 µM | ≥ 64 µM | ≥ 64 µM |
| [C-]#[N+]c1ccc(NC(=O)Cc2ccccc2Cl)cc1 | > 8 µM | – | > 8 µM | – | – | – | > 8 µM | – | ≥ 64 µM | ≥ 64 µM | ≥ 64 µM |
| [C-]#[N+]c1ccc(NC(=O)CCc2ccc(Br)cc2)cc1 | 8 µM | 2 µM | 8 µM | 2 µM | 2 µM | 8 µM | 8 µM | 8 µM | ≥ 64 µM | ≥ 64 µM | ≥ 64 µM |
| [C-]#[N+]c1ccc(NC(=O)CCCCC)cc1 | > 8 µM | 1 µM | > 8 µM | 1 µM | 1 µM | > 8 µM | 8 µM | > 8 µM | ≥ 64 µM | ≥ 64 µM | ≥ 64 µM |
| [C-]#[N+]c1ccc(NC(=O)c2cccnc2)cc1 | > 8 µM | – | > 8 µM | – | – | – | > 8 µM | – | ≥ 64 µM | ≥ 64 µM | ≥ 64 µM |
| [C-]#[N+]c1ccc(NC(=O)Cc2ccccc2[N+](=O)[O-])cc1 | > 8 µM | – | > 8 µM | – | – | – | > 8 µM | – | ≥ 64 µM | ≥ 64 µM | ≥ 64 µM |
| [C-]#[N+]c1ccc(NC(=O)Cc2ccncc2)cc1 | > 8 µM | – | > 8 µM | – | – | – | > 8 µM | – | ≥ 64 µM | ≥ 64 µM | ≥ 64 µM |
| [C-]#[N+]c1ccc(NC(=O)Cc2cccc([N+](=O)[O-])c2)cc1 | 8 µM | 4 µM | 8 µM | 4 µM | 2 µM | 4 µM | 4 µM | 4 µM | ≥ 64 µM | ≥ 64 µM | ≥ 64 µM |
| N#Cc1ccc(NC(=O)COc2ccccc2)cc1 | > 8 µM | – | > 8 µM | – | – | – | > 8 µM | – | ≥ 64 µM | ≥ 64 µM | ≥ 64 µM |
| N#Cc1ccc(NC(=O)Cc2ccccc2)cc1 | > 8 µM | – | > 8 µM | – | – | – | > 8 µM | – | ≥ 64 µM | ≥ 64 µM | ≥ 64 µM |
| [C-]#[N+]c1ccc(NC(=O)c2ccccc2[N+](=O)[O-])cc1 | > 8 µM | – | > 8 µM | – | – | – | > 8 µM | – | ≥ 64 µM | ≥ 64 µM | ≥ 64 µM |
| [C-]#[N+]c1ccc(NC(=O)CCc2cc(OC)c(OC)c(OC)c2)cc1 | > 8 µM | – | > 8 µM | – | – | – | > 8 µM | – | ≥ 64 µM | ≥ 64 µM | ≥ 64 µM |
| [C-]#[N+]c1ccc(NC(=O)Cc2cc(OC)c(OC)c(OC)c2)cc1 | > 8 µM | – | > 8 µM | – | – | – | > 8 µM | – | ≥ 64 µM | ≥ 64 µM | ≥ 64 µM |
| [C-]#[N+]c1ccc(NC(=O)C(=O)c2ccccc2)cc1 | > 8 µM | – | > 8 µM | – | – | – | > 8 µM | – | ≥ 64 µM | ≥ 64 µM | ≥ 64 µM |
| [C-]#[N+]c1ccc(NC(=O)c2ccc(Br)cc2)cc1 | > 8 µM | – | > 8 µM | – | – | – | > 8 µM | – | ≥ 64 µM | ≥ 64 µM | ≥ 64 µM |
| [C-]#[N+]c1ccc(NC(=O)c2ccccc2C(F)(F)F)cc1 | > 8 µM | – | > 8 µM | – | – | – | > 8 µM | – | ≥ 64 µM | ≥ 64 µM | ≥ 64 µM |
| [C-]#[N+]c1ccc(NC(=O)c2ccc(C(=O)OC)cc2)cc1 | > 8 µM | – | > 8 µM | – | – | – | > 8 µM | – | ≥ 64 µM | ≥ 64 µM | ≥ 64 µM |
| [C-]#[N+]c1ccc(NC(=O)Cc2c[nH]c3ccccc23)cc1 | > 8 µM | – | > 8 µM | – | – | – | > 8 µM | – | ≥ 64 µM | ≥ 64 µM | ≥ 64 µM |
| [C-]#[N+]c1ccc(NC(=O)c2ccc(OC)cc2)cc1 | > 8 µM | – | > 8 µM | – | – | – | > 8 µM | – | ≥ 64 µM | ≥ 64 µM | ≥ 64 µM |
| [C-]#[N+]c1ccc(NC(=O)CC2CCCCC2)cc1 | > 8 µM | – | > 8 µM | – | – | – | > 8 µM | – | ≥ 64 µM | ≥ 64 µM | ≥ 64 µM |
| N#Cc1ccc(NC(=O)Cc2cccc(Cl)c2)cc1 | > 8 µM | – | > 8 µM | – | – | – | > 8 µM | – | ≥ 64 µM | ≥ 64 µM | ≥ 64 µM |
